{"source": "paper PMC6508953", "about": "(Cell chemical biology, 2017)", "key": {"Bax [1]": {"test_system": "Bax", "assay": "Bax:membrane FRET", "format": "biochemical, human", "details": "10 μM preincubated with 20 nM Alexa568-Bax, 20 nM BIM, DiD liposomes"}, "Bax [2]": {"biological_target": "T1, Bax (Homo sapiens, UniProt Q07812)", "T1 sequence (Q07812 whole entry)": "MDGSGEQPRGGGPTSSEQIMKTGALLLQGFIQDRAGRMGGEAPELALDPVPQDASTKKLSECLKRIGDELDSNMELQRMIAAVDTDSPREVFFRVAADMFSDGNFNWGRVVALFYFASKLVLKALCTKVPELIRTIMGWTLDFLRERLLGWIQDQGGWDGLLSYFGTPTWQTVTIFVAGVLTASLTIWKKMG", "assay": "DSS chemical crosslinking of Bax oligomers in liposomes, immunoblot", "format": "biochemical", "details": "for large oligomers of Bax (DSS crosslinking): high concentrations, compared with positive control Bcl-XL"}, "Bax [3]": {"biological_target": "T1, Bax", "details": "not told"}, "Bax [4]": {"biological_target": "T1, Bax", "assay": "tBid/Bax-mediated liposome permeabilization", "details": "for IC50: read-out: IC50, concentration of compound required to inhibit 50% of the maximal dye release, liposomes, tBid and Bax, ANTS/DPX release"}, "HCT-116 cells [5]": {"test_system": "HCT-116 cells", "assay": "Immunofluorescence for activated Bax", "format": "cell-based, human", "details": "10 μM for 3 hr before ActD for 24 hr, HCT-116 WT"}, "[6]": {"test_system": "primary embryonic mouse brain cortical neurons", "assay": "Glutamate excitotoxicity, lactate dehydrogenase release", "format": "cell-based"}, "Bax [7]": {"biological_target": "T1, Bax", "assay": "Bax binding to mitochondria by differential centrifugation", "format": "biochemical", "details": "preincubation of Bax or mitochondria with compound"}, "Bax [8]": {"test_system": "Bax", "assay": "Bax:Bax FRET oligomerization assay", "format": "biochemical, human", "details": "10 μM, liposomes and tBid"}, "Bax [9]": {"test_system": "Bax", "format": "biochemical", "details": "40 μM"}, "HCT-116 cells [10]": {"test_system": "HCT-116 cells", "details": "5 or 10 μM pretreatment; WT, Bax-/- and Bak-/- HCT-116 cells; actinomycin D"}}, "data": [{"smiles": "NCCCN(Cc1ccc(Br)cc1)C(=O)[C@H](Cc1ccccc1)NC(=O)c1ccccc1", "note": "[DAN004]", "values": [{"measurement": "Bax binding to membranes by FRET", "setting": "Bax [1]", "value": "did not inhibit Bax binding to membranes"}, {"measurement": "large oligomers of Bax (DSS crosslinking)", "setting": "Bax [2]", "value": "inhibited large oligomers of Bax to a similar extent as the positive control Bcl-XL"}, {"measurement": "inhibition of heat-activated Bax-mediated liposome permeabilization", "setting": "Bax [3]", "value": "inhibited heat-activated Bax-mediated liposome permeabilization equivalently"}, {"measurement": "protection against ActD treatment", "setting": "BMK cells; sub-toxic doses", "value": "did not confer protection against ActD treatment"}, {"measurement": "IC50", "setting": "Bax [4]", "value": "~700", "unit": "nM"}]}, {"smiles": "COCCOCOc1ccc2c(c1)O[C@H](CN)[C@H]2N(Cc1ccc(Br)cc1)C(=O)[C@H](Cc1ccccc1)NC(=O)c1ccccc1", "note": "[MSN-125]", "values": [{"measurement": "Bax-6A7 positivity (exposure of N-terminal Bax epitope) after ActD", "setting": "HCT-116 cells [5]", "value": "prevented"}, {"measurement": "cytochrome c release from mitochondria in cells after ActD", "setting": "HCT-116 cells [5]", "value": "prevented"}, {"measurement": "neuronal damage after glutamate excitotoxicity (LDH release)", "setting": "[6]; 5 μM added directly after 30 min of 25 or 100 μM glutamate, read after 24 hr", "value": "substantially reduced neuronal damage"}, {"measurement": "neuronal damage by compound alone", "setting": "[6]; 5 μM, 24 hr, no glutamate", "value": "did not result in neuronal damage"}, {"measurement": "Bax binding to mitochondria", "setting": "Bax [7]", "value": "did not inhibit Bax binding to mitochondria"}, {"measurement": "FRET between DAC-Bax-134C and NBD-Bax-126C (Bax oligomerization)", "setting": "Bax [8]", "value": "reduced FRET"}, {"measurement": "large oligomers of Bax (DSS crosslinking)", "setting": "Bax [2]", "value": "inhibited large oligomers of Bax to a similar extent as the positive control Bcl-XL"}, {"measurement": "Bax dimerization (DSS crosslinking)", "setting": "Bax [2]; highest concentration tested", "value": "inhibited Bax dimerization to a limited extent"}, {"measurement": "disulfide crosslinks of double-cysteine Bax L59C/L76C and L59C/M79C", "setting": "Bax [9]", "value": "not inhibited by MSN-125"}, {"measurement": "disulfide crosslinking of Bax-L63C with Bax-A112C", "setting": "Bax [9]; IVT and TNT systems", "value": "not inhibited by MSN-125"}, {"measurement": "survival and growth after ActD treatment and replating", "setting": "HCT-116 cells [10]", "value": "conferred survival"}, {"measurement": "survival and growth after STS treatment and replating", "setting": "BMK cells; 5 μM compound, BMK cells, staurosporine", "value": "conferred long-term survival and growth"}, {"measurement": "survival and growth after ActD treatment and replating", "setting": "BMK cells; 5 or 10 μM pretreatment, WT, Bax-/- and Bak-/- BMK cells, 75 nM ActD", "value": "conferred survival"}, {"measurement": "concentration-dependent inhibition of liposome permeabilization by tBid and Bax", "setting": "Bax [4]; individual assays, normalized to reactions without compound", "value": "inhibited dye release from liposomes in a concentration-dependent fashion"}, {"measurement": "IC50", "setting": "Bax [4]", "value": "~4000", "unit": "nM"}]}]}
